How the values were obtained:
[1] = system: P. aeruginosa expressing the Class B carbapenemase VIM-2; experiment: Broth microdilution MIC assay with meropenem, P. aeruginosa VIM-2; type: cell-based; details: Fixed Mero (meropenem) 4 μg/mL; P. aerug. 2775 VIM-2
In short: (§1)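 Visual MIC readout of the test compound after 16-20 hours at 37° C, measured in the presence of a constant 4 μg/ml β-lactam. Compound concentrations spanned 16 to 0.125 μg/mL in 2-fold steps in cation-adjusted Mueller Hinton broth.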

[2] = system: E. cloacae expressing the Class C P99; experiment: Broth microdilution MIC assay with ceftazidime, E. cloacae P99; type: cell-based; details: Fixed CAZ (ceftazidime) 4 μg/mL; E. cl. 144200 p99 AmpC
In short: as §1

KPC-2 = target: T1, KPC-2 (Klebsiella pneumoniae, UniProt Q9F663); experiment: β-lactamase enzyme inhibition assay, KPC-2 (imipenem substrate); type: biochemical; details: Class A; imipenem substrate, 300 nm; read-out: KPC-2
T1 construct: made in house; host or cells: E. coli BL21(DE3)
In short: (§2)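 Read-out is the rate of β-lactam ring hydrolysis monitored by absorbance: 300 nm for imipenem with KPC-2 and 260 nm for cefotaxime with SHV-5. Recombinant native enzymes were first incubated with compound at 37 °C for 15 min. The IC50 is the inhibitor concentration that halves the initial hydrolysis rate.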

[3] = system: K. pneumoniae producing the Class D carbapenemase OXA-48; experiment: Broth microdilution MIC assay with meropenem, K. pneumoniae OXA-48; type: cell-based; details: Fixed Mero (meropenem) 4 μg/mL; K. p. 11978 OXA-48
In short: as §1

OXA-48 = OXA-48 (UniProt Q6XEC0); experiment: β-lactamase enzyme inhibition assay, Class D oxacillinase; type: biochemical; details: read-out: OXA-48
[4] = system: E. coli expressing the Class A Extended Spectrum Beta-Lactamase (ESBL) CTX-M-15; experiment: Broth microdilution MIC assay with ceftazidime, E. coli CTX-M-15; type: cell-based; details: Fixed CAZ (ceftazidime) 4 μg/mL; E. coli ESBL4 CTX-M-15
In short: as §1

[5] = system: K. pneumoniae expressing the class A carbapenemase KPC-2 and the class B carbapenemase VIM-4; experiment: Broth microdilution MIC assay with meropenem, K. pneumoniae KPC-2 and VIM-4; type: cell-based; details: Fixed Mero (meropenem) 4 μg/mL; K. p. A-1797 KPC-2 VIM-4
In short: as §1

VIM-2 = target: T2, VIM-2 (Escherichia coli, UniProt Q5U7L7); experiment: β-lactamase enzyme inhibition assay, VIM-2 (nitrocefin substrate); type: biochemical; details: Class B; nitrocefin substrate, 486 nm; read-out: VIM-2
T2 construct: made in house; host or cells: E. coli BL21(DE3)
In short: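 Nitrocefin hydrolysis, read at 486 nm over 10 min, served as the measure of VIM-2 activity. The enzyme had been incubated with compound for 15 min at 37 °C before 100 μM substrate was added, and IC50 values were fitted from percent inhibition of the initial rate.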

SHV-5 = target: T3, SHV-5 (Klebsiella pneumoniae, UniProt P0A3M1); experiment: β-lactamase enzyme inhibition assay, SHV-5 (cefotaxime substrate); type: biochemical
T3 construct: made in house; host or cells: E. coli BL21(DE3)
In short: as §2

[6] = system: K. pneumoniae expressing the Class A carbapenemase KPC-2; experiment: Broth microdilution MIC assay with meropenem, K. pneumoniae KPC-2; type: cell-based; details: Fixed Mero (meropenem) 4 μg/mL; K. p. 156319 KPC-3
In short: as §1

AmpC = target: T4, AmpC (Enterobacter cloacae, UniProt P05364); experiment: β-lactamase enzyme inhibition assay, p99 AmpC (nitrocefin substrate); type: biochemical
T4 construct: made in house; host or cells: E. coli BL21(DE3)
In short: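 Read-out is the rate of β-lactam ring hydrolysis monitored by absorbance. Recombinant native enzymes were first incubated with compound at 37 °C for 15 min. The IC50 is the inhibitor concentration that halves the initial hydrolysis rate.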

T1 sequence (Q9F663 25-293, looked up): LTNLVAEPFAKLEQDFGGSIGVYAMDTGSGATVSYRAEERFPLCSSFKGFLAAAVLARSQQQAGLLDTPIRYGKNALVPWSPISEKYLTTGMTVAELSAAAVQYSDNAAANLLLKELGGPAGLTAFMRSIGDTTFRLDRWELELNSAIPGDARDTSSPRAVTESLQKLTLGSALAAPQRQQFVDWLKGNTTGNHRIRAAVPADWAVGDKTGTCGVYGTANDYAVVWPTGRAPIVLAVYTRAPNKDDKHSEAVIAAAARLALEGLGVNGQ
T3 sequence (P0A3M1 22-286): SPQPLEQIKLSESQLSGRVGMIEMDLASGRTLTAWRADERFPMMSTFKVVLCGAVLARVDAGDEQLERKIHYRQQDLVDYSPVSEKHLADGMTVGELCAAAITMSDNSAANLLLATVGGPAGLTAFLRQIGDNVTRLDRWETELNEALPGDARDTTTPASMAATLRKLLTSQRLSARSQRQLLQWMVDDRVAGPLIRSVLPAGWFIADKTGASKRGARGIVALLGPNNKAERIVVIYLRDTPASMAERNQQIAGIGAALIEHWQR
T4 sequence (P05364 21-381): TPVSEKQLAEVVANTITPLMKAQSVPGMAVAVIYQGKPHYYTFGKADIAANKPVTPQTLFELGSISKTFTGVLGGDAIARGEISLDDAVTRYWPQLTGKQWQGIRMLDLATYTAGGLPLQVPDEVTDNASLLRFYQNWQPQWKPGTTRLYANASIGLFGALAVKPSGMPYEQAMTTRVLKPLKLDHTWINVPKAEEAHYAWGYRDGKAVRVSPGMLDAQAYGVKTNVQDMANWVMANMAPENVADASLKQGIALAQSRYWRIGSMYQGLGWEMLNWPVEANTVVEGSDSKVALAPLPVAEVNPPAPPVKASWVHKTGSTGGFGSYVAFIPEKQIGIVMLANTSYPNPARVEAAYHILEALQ

Structure (SMILES)	MIC (μg/mL) of Exemplary Compounds in presence of fixed β-lactams: P. aerug. 2775 VIM-2 [1]	MIC (μg/mL) of Exemplary Compounds in presence of fixed β-lactams: E. cl. 144200 p99 AmpC [2]	IC50 (KPC-2)	MIC (μg/mL) of Exemplary Compounds in presence of fixed β-lactams: K. p. 11978 OXA-48 [3]	IC50 (OXA-48)	MIC (μg/mL) of Exemplary Compounds in presence of fixed β-lactams: E. coli ESBL4 CTX-M-15 [4]	MIC (μg/mL) of Exemplary Compounds in presence of fixed β-lactams: K. p. A-1797 KPC-2 VIM-4 [5]	IC50 (VIM-2)	IC50 (SHV-5)	MIC (μg/mL) of Exemplary Compounds in presence of fixed β-lactams: K. p. 156319 KPC-3 [6]	IC50 (AmpC)
NCc1nnn(CC(=O)N[C@H]2Cc3cccc(C(=O)O)c3OB2O)c1-c1ccsc1 [Example 108, (R)-3-(2-(4-(aminomethyl)-5-(thiophen-3-yl)-1H-1,2,3-triazol-1-yl)acetamido)-2-hydroxy-3,4-dihydro-2H-benzo[e][1,2]oxaborinine-8-carboxylic acid]	C (C represents an MIC of <1 μg/mL)	B (B represents an MIC between 1 and 16 μg/mL inclusive)	< 100 nM	B (B represents an MIC between 1 and 16 μg/mL inclusive)	< 100 nM	C (C represents an MIC of <1 μg/mL)	C (C represents an MIC of <1 μg/mL)	< 100 nM	100 to 1000 nM	B (B represents an MIC between 1 and 16 μg/mL inclusive)	< 100 nM
NCCCC[C@@H](C(=O)N[C@H]1Cc2cccc(C(=O)O)c2OB1O)n1cc(CN)nn1 [Example 113, (R)-3-((S)-6-amino-2-(4-(aminomethyl)-1H-1,2,3-triazol-1-yl)hexanamido)-2-hydroxy-3,4-dihydro-2H-benzo[e][1,2]oxaborinine-8-carboxylic acid]	C (C represents an MIC of <1 μg/mL)	C (C represents an MIC of <1 μg/mL)	100 to 1000 nM	A (A represents an MIC>16 μg/mL)	100 to 1000 nM	C (C represents an MIC of <1 μg/mL)	C (C represents an MIC of <1 μg/mL)	< 100 nM	1000 to 10000 nM	B (B represents an MIC between 1 and 16 μg/mL inclusive)	< 100 nM
NCc1cn(C[C@H](N)C(=O)N[C@H]2Cc3cccc(C(=O)O)c3OB2O)nn1 [Example 114, (R)-3-((S)-2-amino-3-(4-(aminomethyl)-1H-1,2,3-triazol-1-yl)propanamido)-2-hydroxy-3,4-dihydro-2H-benzo[e][1,2]oxaborinine-8-carboxylic acid]	C (C represents an MIC of <1 μg/mL)	C (C represents an MIC of <1 μg/mL)	100 to 1000 nM	B (B represents an MIC between 1 and 16 μg/mL inclusive)	1000 to 10000 nM	C (C represents an MIC of <1 μg/mL)	B (B represents an MIC between 1 and 16 μg/mL inclusive)	1000 to 10000 nM	10000 to 100000 nM	C (C represents an MIC of <1 μg/mL)	< 100 nM
CSCC[C@@H](C(=O)N[C@H]1Cc2cccc(C(=O)O)c2OB1O)n1cc(CN)nn1 [Example 115, (R)-3-((S)-2-(4-(aminomethyl)-1H-1,2,3-triazol-1-yl)-4-(methylthio)butanamido)-2-hydroxy-3,4-dihydro-2H-benzo[e][1,2]oxaborinine-8-carboxylic acid]	B (B represents an MIC between 1 and 16 μg/mL inclusive)	C (C represents an MIC of <1 μg/mL)	100 to 1000 nM	B (B represents an MIC between 1 and 16 μg/mL inclusive)	1000 to 10000 nM	C (C represents an MIC of <1 μg/mL)	B (B represents an MIC between 1 and 16 μg/mL inclusive)	100 to 1000 nM	100 to 1000 nM	B (B represents an MIC between 1 and 16 μg/mL inclusive)	< 100 nM

From patent US11046716B2, “Beta-lactamase inhibitors” (priority 2015, dated 2021)
